In patent publication US20230017045A1, “PYRIDINE AND PYRIMIDINE CARBOXYLATE HERBICIDES AND METHODS OF USE THEREOF” (Dow AgroSciences LLC, priority 2017, published 2023):

What follows are molecules tested on test plant species (assay: Post-emergent herbicidal activity test (greenhouse, foliar spray, visual growth reduction)). Details: ALOMY: blackgrass (Alopecurus myosuroides), 140 g ai/ha, 14 days after application.
Assay type: in vivo
Procedure, shortened: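 Greenhouse plants at first–second true leaf stage sprayed overhead at 187 L/ha with compound in acetone/water/isopropanol/DMSO/crop oil/X-77 carrier; controls received solvent blank. Injury rated visually after 14 d on a 0–100% scale versus untreated and control plants, converted to growth reduction.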

Row | SMILES | Visual Growth Reduction (%) 14 Days After Application, ALOMY
1 | COC(=O)c1nc(-c2ccc(Cl)c([N+](=O)[O-])c2)ccc1Cl [F83, Methyl 3-chloro-6-(4-chloro-3-nitrophenyl) picolinate] | G (0-29)

Same assay, conditions: AMARE: redroot pigweed (Amaranthus retroflexus), 140 g ai/ha, 14 days after application

Row | SMILES | Visual Growth Reduction (%) 14 Days After Application, AMARE
2 | COC(=O)c1nc(-c2ccc(Cl)c([N+](=O)[O-])c2)ccc1Cl [F83, Methyl 3-chloro-6-(4-chloro-3-nitrophenyl) picolinate] | G (0-29)

Same assay, conditions: AVEFA: wild oat (Avena fatua), 140 g ai/ha, 14 days after application

Row | SMILES | Visual Growth Reduction (%) 14 Days After Application, AVEFA
3 | COC(=O)c1nc(-c2ccc(Cl)c([N+](=O)[O-])c2)ccc1Cl [F83, Methyl 3-chloro-6-(4-chloro-3-nitrophenyl) picolinate] | G (0-29)

Same assay, conditions: CHEAL: lambsquarters (Chenopodium album), 140 g ai/ha, 14 days after application

Row | SMILES | Visual Growth Reduction (%) 14 Days After Application, CHEAL
4 | COC(=O)c1nc(-c2ccc(Cl)c([N+](=O)[O-])c2)ccc1Cl [F83, Methyl 3-chloro-6-(4-chloro-3-nitrophenyl) picolinate] | G (0-29)

Same assay, conditions: CIRAR: canada thistle (Cirsium arvense), 140 g ai/ha, 14 days after application

Row | SMILES | Visual Growth Reduction (%) 14 Days After Application, CIRAR
5 | COC(=O)c1nc(-c2ccc(Cl)c([N+](=O)[O-])c2)ccc1Cl [F83, Methyl 3-chloro-6-(4-chloro-3-nitrophenyl) picolinate] | G (0-29)

Same assay, conditions: CYPES: yellow nutsedge (Cyperus esculentus), 140 g ai/ha, 14 days after application

Row | SMILES | Visual Growth Reduction (%) 14 Days After Application, CYPES
6 | COC(=O)c1nc(-c2ccc(Cl)c([N+](=O)[O-])c2)ccc1Cl [F83, Methyl 3-chloro-6-(4-chloro-3-nitrophenyl) picolinate] | G (0-29)

Same assay, conditions: DIGSA: crabgrass (Digitaria sanguinalis), 140 g ai/ha, 14 days after application

Row | SMILES | Visual Growth Reduction (%) 14 Days After Application, DIGSA
7 | COC(=O)c1nc(-c2ccc(Cl)c([N+](=O)[O-])c2)ccc1Cl [F83, Methyl 3-chloro-6-(4-chloro-3-nitrophenyl) picolinate] | G (0-29)

Same assay, conditions: ECHCG: barnyardgrass (Echinochloa crus-galli), 140 g ai/ha, 14 days after application

Row | SMILES | Visual Growth Reduction (%) 14 Days After Application, ECHCG
8 | COC(=O)c1nc(-c2ccc(Cl)c([N+](=O)[O-])c2)ccc1Cl [F83, Methyl 3-chloro-6-(4-chloro-3-nitrophenyl) picolinate] | G (0-29)

Same assay, conditions: IPOHE: ivy-leaf morning glory (Ipomoea hederacea), 140 g ai/ha, 14 days after application

Row | SMILES | Visual Growth Reduction (%) 14 Days After Application, IPOHE
9 | COC(=O)c1nc(-c2ccc(Cl)c([N+](=O)[O-])c2)ccc1Cl [F83, Methyl 3-chloro-6-(4-chloro-3-nitrophenyl) picolinate] | G (0-29)

Same assay, conditions: KCHSC: kochia (Bassia scoparia), 140 g ai/ha, 14 days after application

Row | SMILES | Visual Growth Reduction (%) 14 Days After Application, KCHSC
10 | COC(=O)c1nc(-c2ccc(Cl)c([N+](=O)[O-])c2)ccc1Cl [F83, Methyl 3-chloro-6-(4-chloro-3-nitrophenyl) picolinate] | G (0-29)

Same assay, conditions: ORYSA: rice (Oryza sativa), 140 g ai/ha, 14 days after application

Row | SMILES | Visual Growth Reduction (%) 14 Days After Application, ORYSA
11 | COC(=O)c1nc(-c2ccc(Cl)c([N+](=O)[O-])c2)ccc1Cl [F83, Methyl 3-chloro-6-(4-chloro-3-nitrophenyl) picolinate] | G (0-29)

Same assay, conditions: SETFA: giant foxtail (Setaria faberi), 140 g ai/ha, 14 days after application

Row | SMILES | Visual Growth Reduction (%) 14 Days After Application, SETFA
12 | COC(=O)c1nc(-c2ccc(Cl)c([N+](=O)[O-])c2)ccc1Cl [F83, Methyl 3-chloro-6-(4-chloro-3-nitrophenyl) picolinate] | G (0-29)

Same assay, conditions: SORVU: johnsongrass (Sorghum vulgare), 140 g ai/ha, 14 days after application

Row | SMILES | Visual Growth Reduction (%) 14 Days After Application, SORVU
13 | COC(=O)c1nc(-c2ccc(Cl)c([N+](=O)[O-])c2)ccc1Cl [F83, Methyl 3-chloro-6-(4-chloro-3-nitrophenyl) picolinate] | G (0-29)

Same assay, conditions: STEME: common chickweed (Stellaria media), 140 g ai/ha, 14 days after application

Row | SMILES | Visual Growth Reduction (%) 14 Days After Application, STEME
14 | COC(=O)c1nc(-c2ccc(Cl)c([N+](=O)[O-])c2)ccc1Cl [F83, Methyl 3-chloro-6-(4-chloro-3-nitrophenyl) picolinate] | G (0-29)

Same assay, conditions: TRZAS: wheat, spring (Triticum aestivum), 140 g ai/ha, 14 days after application

Row | SMILES | Visual Growth Reduction (%) 14 Days After Application, TRZAS
15 | COC(=O)c1nc(-c2ccc(Cl)c([N+](=O)[O-])c2)ccc1Cl [F83, Methyl 3-chloro-6-(4-chloro-3-nitrophenyl) picolinate] | G (0-29)

Same assay, conditions: post-emergence, 336 h, ALOMY: blackgrass (Alopecurus myosuroides), 140 g ai/ha, 14 days after application, read-out: Visual Growth Reduction (%) 14 Days After Application, ALOMY

Row | SMILES | pest or weed control at 140 g/ha [%]
16 | COC(=O)c1nc(-c2ccc(C#N)cc2Cl)ccc1Cl [F59, methyl 3-chloro-6-(2-chloro-4-cyanophenyl)picolinate] | 0 to 29

Same assay, conditions: post-emergence, 336 h, AMARE: redroot pigweed (Amaranthus retroflexus), 140 g ai/ha, 14 days after application, read-out: Visual Growth Reduction (%) 14 Days After Application, AMARE

Row | SMILES | pest or weed control at 140 g/ha [%]
17 | COC(=O)c1nc(-c2ccc(C#N)cc2Cl)ccc1Cl [F59, methyl 3-chloro-6-(2-chloro-4-cyanophenyl)picolinate] | 85 to 94

Same assay, conditions: post-emergence, 336 h, AVEFA: wild oat (Avena fatua), 140 g ai/ha, 14 days after application, read-out: Visual Growth Reduction (%) 14 Days After Application, AVEFA

Row | SMILES | pest or weed control at 140 g/ha [%]
18 | COC(=O)c1nc(-c2ccc(C#N)cc2Cl)ccc1Cl [F59, methyl 3-chloro-6-(2-chloro-4-cyanophenyl)picolinate] | 0 to 29

Same assay, conditions: post-emergence, 336 h, CHEAL: lambsquarters (Chenopodium album), 140 g ai/ha, 14 days after application, read-out: Visual Growth Reduction (%) 14 Days After Application, CHEAL

Row | SMILES | pest or weed control at 140 g/ha [%]
19 | COC(=O)c1nc(-c2ccc(C#N)cc2Cl)ccc1Cl [F59, methyl 3-chloro-6-(2-chloro-4-cyanophenyl)picolinate] | 60 to 74

Same assay, conditions: post-emergence, 336 h, CIRAR: canada thistle (Cirsium arvense), 140 g ai/ha, 14 days after application, read-out: Visual Growth Reduction (%) 14 Days After Application, CIRAR

Row | SMILES | pest or weed control at 140 g/ha [%]
20 | COC(=O)c1nc(-c2ccc(C#N)cc2Cl)ccc1Cl [F59, methyl 3-chloro-6-(2-chloro-4-cyanophenyl)picolinate] | 30 to 44

Same assay, conditions: post-emergence, 336 h, CYPES: yellow nutsedge (Cyperus esculentus), 140 g ai/ha, 14 days after application, read-out: Visual Growth Reduction (%) 14 Days After Application, CYPES

Row | SMILES | pest or weed control at 140 g/ha [%]
21 | COC(=O)c1nc(-c2ccc(C#N)cc2Cl)ccc1Cl [F59, methyl 3-chloro-6-(2-chloro-4-cyanophenyl)picolinate] | 0 to 29

Same assay, conditions: post-emergence, 336 h, DIGSA: crabgrass (Digitaria sanguinalis), 140 g ai/ha, 14 days after application, read-out: Visual Growth Reduction (%) 14 Days After Application, DIGSA

Row | SMILES | pest or weed control at 140 g/ha [%]
22 | COC(=O)c1nc(-c2ccc(C#N)cc2Cl)ccc1Cl [F59, methyl 3-chloro-6-(2-chloro-4-cyanophenyl)picolinate] | 60 to 74

Same assay, conditions: post-emergence, 336 h, ECHCG: barnyardgrass (Echinochloa crus-galli), 140 g ai/ha, 14 days after application, read-out: Visual Growth Reduction (%) 14 Days After Application, ECHCG

Row | SMILES | pest or weed control at 140 g/ha [%]
23 | COC(=O)c1nc(-c2ccc(C#N)cc2Cl)ccc1Cl [F59, methyl 3-chloro-6-(2-chloro-4-cyanophenyl)picolinate] | 45 to 59

Same assay, conditions: post-emergence, 336 h, IPOHE: ivy-leaf morning glory (Ipomoea hederacea), 140 g ai/ha, 14 days after application, read-out: Visual Growth Reduction (%) 14 Days After Application, IPOHE

Row | SMILES | pest or weed control at 140 g/ha [%]
24 | COC(=O)c1nc(-c2ccc(C#N)cc2Cl)ccc1Cl [F59, methyl 3-chloro-6-(2-chloro-4-cyanophenyl)picolinate] | 95 to 100

Same assay, conditions: post-emergence, 336 h, KCHSC: kochia (Bassia scoparia), 140 g ai/ha, 14 days after application, read-out: Visual Growth Reduction (%) 14 Days After Application, KCHSC

Row | SMILES | pest or weed control at 140 g/ha [%]
25 | COC(=O)c1nc(-c2ccc(C#N)cc2Cl)ccc1Cl [F59, methyl 3-chloro-6-(2-chloro-4-cyanophenyl)picolinate] | 45 to 59

Same assay, conditions: post-emergence, 336 h, ORYSA: rice (Oryza sativa), 140 g ai/ha, 14 days after application, read-out: Visual Growth Reduction (%) 14 Days After Application, ORYSA

Row | SMILES | pest or weed control at 140 g/ha [%]
26 | COC(=O)c1nc(-c2ccc(C#N)cc2Cl)ccc1Cl [F59, methyl 3-chloro-6-(2-chloro-4-cyanophenyl)picolinate] | 0 to 29

Same assay, conditions: post-emergence, 336 h, SETFA: giant foxtail (Setaria faberi), 140 g ai/ha, 14 days after application, read-out: Visual Growth Reduction (%) 14 Days After Application, SETFA

Row | SMILES | pest or weed control at 140 g/ha [%]
27 | COC(=O)c1nc(-c2ccc(C#N)cc2Cl)ccc1Cl [F59, methyl 3-chloro-6-(2-chloro-4-cyanophenyl)picolinate] | 45 to 59

Same assay, conditions: post-emergence, 336 h, SORVU: grain sorghum (Sorghum vulgare), 140 g ai/ha, 14 days after application, read-out: Visual Growth Reduction (%) 14 Days After Application, SORVU

Row | SMILES | pest or weed control at 140 g/ha [%]
28 | COC(=O)c1nc(-c2ccc(C#N)cc2Cl)ccc1Cl [F59, methyl 3-chloro-6-(2-chloro-4-cyanophenyl)picolinate] | 75 to 84

Same assay, conditions: post-emergence, 336 h, STEME: common chickweed (Stellaria media), 140 g ai/ha, 14 days after application, read-out: Visual Growth Reduction (%) 14 Days After Application, STEME

Row | SMILES | pest or weed control at 140 g/ha [%]
29 | COC(=O)c1nc(-c2ccc(C#N)cc2Cl)ccc1Cl [F59, methyl 3-chloro-6-(2-chloro-4-cyanophenyl)picolinate] | 0 to 29

Same assay, conditions: post-emergence, 336 h, TRZAS: wheat, spring (Triticum aestivum), 140 g ai/ha, 14 days after application, read-out: Visual Growth Reduction (%) 14 Days After Application, TRZAS

Row | SMILES | pest or weed control at 140 g/ha [%]
30 | COC(=O)c1nc(-c2ccc(C#N)cc2Cl)ccc1Cl [F59, methyl 3-chloro-6-(2-chloro-4-cyanophenyl)picolinate] | 0 to 29
